These results are taken from paper PMC8132342, “Antimalarial properties and molecular docking analysis of compounds from Dioscorea bulbifera L. as new antimalarial agent candidates” (BMC Complementary Medicine and Therapies, 2021).

For data set [1], the system named is CQ-sensitive P. falciparum (3D7 strain). As to the kind of experiment: Antimalarial activity, 3H-hypoxanthine uptake inhibition, 3D7 strain. Format: cell-based. Particulars: Plasmodium falciparum. As for the experimental part:
(§1) The culture of P. falciparum malaria parasites was continuously performed using standard methods with some modifications. RPMI-1640 medium was supplemented with noninfected type O-positive red blood cells (2% hematocrit), 2 mg/ml sodium bicarbonate, 10 μg/ml hypoxanthine (Sigma-Aldrich, New Delhi, India), 4.8 mg/ml HEPES (Himedia, Mumbai, India), 10% human AB serum and 2.5 μg/ml gentamicin (Sigma-Aldrich, New Delhi, India).
(§2) Antimalarial activity of extracts and compounds from D. bulbifera against P. falciparum K1 and 3D7 strains were assessed by measuring ^3H-hypoxanthine incorporated in parasite nucleic acids using the modified technique of Desjadins et al.. The red cell suspension at 1–2% hematocrit containing 1% ring stage P. falciparum-infected red blood cells was incubated with various concentrations of extracts (2.50–80 μg/ml) and pure compounds (2.5–80 μM) in 96-well culture plates. Parasites were incubated at 37 °C for 24 h, then ^3H-hypoxanthine (25 μl of 0.025 μCi/μl) was added to each well, and the plates were maintained under conditions of 93% N2, 3% O2 and 4% CO2 at 37 °C for an additional 24 h. The samples were transferred to a glass fiber filter (Wallac, Turku, Finland). ^3H-Hypoxanthine uptake was then assessed using a MicroBeta TriLux Liquid Scintillation Counter (PerkinElmer, USA). Each assay condition was performed in triplicate independently. The concentration of samples that inhibited the uptake of ^3H-hypoxanthine by 50% (IC50) assessed by log dose response curve using WinNonlin software version 4.1 (Pharsight Corporation, CA) was used as a marker of antimalarial effect potency.

In data set [2] the test system is chloroquine (CQ)-resistant P. falciparum (K1 strain). As to the kind of experiment: Antimalarial activity, 3H-hypoxanthine uptake inhibition, K1 strain. Type of data set: cell-based, Plasmodium falciparum. As for the experimental part:
as §1, §2

The nature of data set [3]: In vitro cytotoxicity, MTT assay. Type of data set: cell-based. As to conditions: African green monkey. As for the experimental part:
The toxicity of D. bulbifera extracts and isolated compounds was assessed by 3-(4,5-dimethythiazol-2-yl)-2,5-diphenyl tetrazolium bromide (MTT) assay according to a previous method. Briefly, Vero cells (Elabscience, Wuhan, Hubei, China) were seeded into 96-well plates at a density of 10^4 cell/ml and incubated for 24 h at 37 °C with 5% CO2. Cells were then treated with various concentrations of extracts and compounds for 48 h at 37 °C with 5% CO2. Doxorubicin (Sigma-Aldrich, New Delhi, India) was used as a toxic control. Subsequently, MTT solution was added to each well, and the plate was incubated for 2 h in a CO2 incubator. The medium was then removed, and 100 μl of DMSO was added to each well. Finally, the optical density was determined at a wavelength of 590 nm using a microplate reader. The assay was performed in duplicate.
In general terms: Tetrazolium dyes change colour on reduction, which living cells bring about.

Where [4] appears, read: Vero cells, MTT, 48 h, read-out: CC50.
[5] abbreviates: pure compounds, P. falciparum 3D7 strain, mean ± S.D. of three determinations, read-out: IC50 3D7.
[6] abbreviates: Plasmodium falciparum, K1, pure compounds, P. falciparum K1 strain, mean ± S.D. of three determinations, read-out: IC50 K1.

The term IC50 denotes the concentration needed to halve the response being measured. In general, CC50 refers to the concentration that lowers cell viability or growth by half. As a reminder, the inhibition is the relative decrease from the control value, in per cent.

Like-named read-outs stand apart in the source and are kept apart here. A value given as a limit tells only on which side of the number the result lay.

Turning to `C[C@H]1[C@H](OC(=O)CCC(=O)O)O[C@@H]2O[C@@]3(C)CC[C@H]4[C@H](C)CC[C@@H]1[C@@]24OO3` [Artesunate, artesunate, reference compound], the IC50 in data set [1] (positive controls (footnote d), P. falciparum 3D7 strain, read-out: IC50 3D7) came out at 0.00181 ± 0.00019 µM; in data set [2] (Plasmodium falciparum, K1, positive controls (footnote d), P. falciparum K1 strain, read-out: IC50 K1) it was 0.00053 ± 4e-05 µM.
With `COc1cccc2c1C(=O)c1c(O)c3c(c(O)c1C2=O)C[C@@](O)(C(=O)CO)C[C@@H]3O[C@H]1C[C@H](N)[C@H](O)[C@H](C)O1` [Doxorubicin, reference compound], the CC50 at 48 h in data set [3] (setting [4]) was determined as 1.96 ± 0.11 µM.
As to `O=c1c(O)c(-c2ccc(O)c(O)c2)oc2cc(O)cc(O)c12` [Compound 6, quercetin], the IC50 amounted to 51 ± 7.28 µM in data set [1] (setting [5]) and 28.5 ± 0.9 µM in data set [2] (setting [6]). Further, the “fold higher activity than 3,5-dimethoxyquercetin (4)” value in data set [2] (K1 strain) was “approximately 1.5 fold”. For the same compound, in data set [2] (K1 strain), the “fold higher activity than quercetin-3-O-β-D-galactopyranoside (14)” value is on record as around 2 fold. In data set [2] (Plasmodium falciparum, at a concentration of 80 μM, K1 strain), the inhibition at 80 µM is 97%. The CC50 at 48 h in data set [3] (setting [4]) was above 80 µM.
`O=c1c(O[C@@H]2O[C@H](CO)[C@@H](O)[C@H](O)[C@H]2O)c(-c2ccc(O)c(O)c2)oc2cc(O)cc(O)c12` [Compound 13, quercetin-3-O-β-D-glucopyranoside]: the half-inhibitory concentration (IC50) in data set [1] (setting [5]) and in data set [2] (setting [6]) was above 80 µM in each case. In addition, in data set [3] (setting [4]), the CC50 at 48 h is above 80 µM.
Consider `CC(=O)OC1CC2(O)C(=O)OC(c3ccoc3)CC2(C)C2CC3CC(C(=O)O3)C12` (stereo not drawn) [Compound 2, 15,16-epoxy-6α-O-acetyl-8β-hydroxy-19-nor-clero-13(16),14-diene-17,12;18,2-diolide], for which the IC50 in data set [1] (setting [5]) and in data set [2] (setting [6]) was above 80 µM each time. In data set [3] (setting [4]), the CC50 at 48 h was above 80 µM.
Regarding `COc1c(-c2ccc(O)c(O)c2)oc2cc(O)cc(OC)c2c1=O` [Compound 4, 3,5-dimethoxy quercetin], the 50% inhibitory concentration (IC50) in data set [1] (setting [5]) is 70.8 ± 2.32 µM; in data set [2] (setting [6]) it was 44 ± 1.47 µM. In addition, the CC50 at 48 h in data set [3] (setting [4]) is above 80 µM.
Regarding `O=c1c(O)c(-c2cc(O)c(O)c(O)c2)oc2cc(O)cc(O)c12` [Compound 11, myricetin], the IC50 in data set [1] (setting [5]) and in data set [2] (setting [6]) was above 80 µM in each case. In addition, in data set [3] (setting [4]), the CC50 at 48 h is above 80 µM.
On to `CCC(C(C)C)C(C)CC(C)C1CCC2C3C=CC4CC(OC5OC(CO)C(O)C(O)C5O)CCC4(C)C3CCC12C` (stereo not drawn) [Compound 3], for which the IC50 in data set [1] (setting [5]) and in data set [2] (setting [6]) was above 80 µM in each case. This compound gave a CC50 at 48 h in data set [3] above 80 µM.
As to `Oc1cc(O)cc(CCc2ccc(O)cc2O)c1` [Compound 9, 2,4,3′,5′-tetrahydroxybibenzyl], the values for the IC50 in data set [1] (setting [5]) and in data set [2] (setting [6]) were 58.9 ± 4.31 µM and 40 ± 2.5 µM, respectively. The same compound yielded a CC50 at 48 h in data set [3] of 16.7 µM.
As to `Oc1cc(O)c2c(c1)CCc1cc(O)c(O)cc1-2` [Compound 10, 2,4,6,7-tetrahydroxy-9,10-dihydrophenanthrene], the results for the IC50 in data set [1] (setting [5]) and in data set [2] (setting [6]) were above 80 µM and 58.3 ± 1.96 µM, respectively. The CC50 at 48 h in data set [3] (setting [4]) was above 80 µM.
As for `NC(=O)NC1NC(=O)NC1=O` (stereo not drawn) [Compound 8, allantoin], the concentration for half-maximal inhibition (IC50) in data set [1] (setting [5]) and in data set [2] (setting [6]) was above 80 µM throughout. The CC50 at 48 h in data set [3] (setting [4]) was above 80 µM.
In the case of `Oc1cc(O)c2c(c1)O[C@H](c1ccc(O)c(O)c1)[C@@H](O)C2` [Compound 5, (+)-catechin], the IC50 in data set [1] (setting [5]) and in data set [2] (setting [6]) was above 80 µM in each case. Besides, in data set [3] (setting [4]), the CC50 at 48 h was above 80 µM.
Consider `CC(=O)OC1CC2C(=O)OC(c3ccoc3)CC2(C)C2CC3CC(C(=O)O3)C12` (stereo not drawn) [Compound 1, 8-epidiosbulbin E acetate], for which the 50% inhibitory concentration (IC50) in data set [1] (setting [5]) and in data set [2] (setting [6]) was above 80 µM in each case. For the same compound, the CC50 at 48 h in data set [3] (setting [4]) was above 80 µM.
For the compound `O=c1c(O[C@@H]2O[C@H](CO)[C@H](O)[C@H](O)[C@H]2O)c(-c2ccc(O)c(O)c2)oc2cc(O)cc(O)c12` [Compound 14, quercetin-3-O-β-D-galactopyranoside], the IC50 came out at 68.9 ± 4.31 µM in data set [1] (setting [5]); 48.9 µM in data set [2] (setting [6]); 48.3 ± 1.21 µM in data set [2] (pure compounds, P. falciparum K1 strain, mean ± S.D. of three determinations, read-out: IC50 K1). In data set [3] (setting [4]), the half-maximal cytotoxic concentration (CC50) at 48 h was above 80 µM.
For the compound `CCN(CC)CCCC(C)Nc1ccnc2cc(Cl)ccc12` (stereo not drawn) [Chloroquine, chloroquine, reference compound], the IC50 worked out at 0.00991 ± 0.00056 µM in data set [1] (3D7, read-out: IC50 3D7) and 0.103 ± 0.0045 µM in data set [2] (Plasmodium falciparum, K1, read-out: IC50 K1).
`O=c1c(O)c(-c2ccc(O)cc2)oc2cc(O)cc(O)c12` [Compound 7, kaempferol]: the IC50 is above 80 µM in data set [1] (setting [5]) and 62.5 ± 1.33 µM in data set [2] (setting [6]). In data set [3] (setting [4]), the CC50 at 48 h is above 80 µM.
